# In patent US20170260178A1 (SPERO GYRASE, INC., priority 2012, published 2017):
# Key:
# [1] = tested on: S. aureus (ATCC 29213); test: Bacterial assay: MIC against S. aureus; assay type: cell-based, Staphylococcus aureus; settings: Staphylococcus aureus, ATCC29213, read-out: minimal inhibitory concentration (MIC)
# [2] = tested on: S. pyogenes (ATCC 51339); test: Bacterial assay: MIC against S. pyogenes; assay type: cell-based, Streptococcus pyogenes; settings: Streptococcus pyogenes, ATCC51339, read-out: minimal inhibitory concentration (MIC)
SMILES,MIC [1],MIC [2]
"CCNC(=O)Nc1nc2cc(-c3ccc(C(O)c4nccn4C)nc3)cc(-c3ccccn3)c2s1 (centres unmarked) [Compound 24, 1-ethyl-3-[5-[6-[hydroxy-(1-methylimidazol-2-yl)methyl]-3-pyridyl]-7-(2-pyridyl)-1,3-benzothiazol-2-yl]urea]",≤ 1 µg/mL,≤ 1 µg/mL
"CCNC(=O)Nc1nc2cc(-c3cnc(C(C)(C)O)nc3)cc(-c3nccc(N4CC(C)(O)C4)n3)c2s1 [Compound 86, 1-ethyl-3-[7-[4-(3-hydroxy-3-methyl-azetidin-1-yl)pyrimidin-2-yl]-5-[2-(1-hydroxy-1-methyl-ethyl)pyrimidin-5-yl]-1,3-benzothiazol-2-yl]urea]",8 µg/mL,≤ 1 µg/mL
"CCNC(=O)Nc1nc2cc(-c3cnc(C(C)(C)O)nc3)c(F)cc2s1 [Compound 177, 1-ethyl-3-[6-fluoro-5-[2-(1-hydroxy-1-methyl-ethyl)pyrimidin-5-yl]-1,3-benzothiazol-2-yl]urea]",≤ 1 µg/mL,2 µg/mL
"CCNC(=O)Nc1nc2cc(-c3cnc(C(O)C(C)(C)C)nc3)cc(-c3ccccn3)c2s1 (centres unmarked) [Compound 60, 1-ethyl-3-[5-[2-(1-hydroxy-2,2-dimethyl-propyl)pyrimidin-5-yl]-7-(2-pyridyl)-1,3-benzothiazol-2-yl]urea]",≤ 1 µg/mL,≤ 1 µg/mL
"CCNC(=O)Nc1nc2cc(-c3cnc(C(C)O)nc3)cc(-c3cc(CN4CCC5(CC4)COC5)ccn3)c2s1 (centres unmarked) [Compound 112, 1-ethyl-3-[5-[2-(1-hydroxyethyl)pyrimidin-5-yl]-7-[4-(2-oxa-7-azaspiro[3.5]nonan-7-ylmethyl)-2-pyridyl]-1,3-benzothiazol-2-yl]urea]",≤ 1 µg/mL,≤ 1 µg/mL
"CCNC(=O)Nc1nc2cc(-c3cnc(C(C)(C)O)nc3)cc(-c3ccc(N4CCC(C)(C(=O)O)CC4)cn3)c2s1 [Compound 45, 1-[6-[2-(ethylcarbamoylamino)-5-[2-(1-hydroxy-1-methyl-ethyl)pyrimidin-5-yl]-1,3-benzothiazol-7-yl]-3-pyridyl]-4-methyl-piperidine-4-carboxylic acid]",2 µg/mL,≤ 1 µg/mL
"CCNC(=O)Nc1nc2cc(-c3cnc(C(C)O)nc3)cc(-c3cc(CN4CC(O)C4)ccn3)c2s1 (centres unmarked) [Compound 65, 1-ethyl-3-[7-[4-[(3-hydroxyazetidin-1-yl)methyl]-2-pyridyl]-5-[2-(1-hydroxyethyl)pyrimidin-5-yl]-1,3-benzothiazol-2-yl]urea]",2 µg/mL,≤ 1 µg/mL
"CCNC(=O)Nc1nc2cc(-c3cnc(C(C)(C)O)nc3)cc(-c3nccc(N4CCN(CCOC)CC4)n3)c2s1 [Compound 107, 1-ethyl-3-[5-[2-(1-hydroxy-1-methyl-ethyl)pyrimidin-5-yl]-7-[4-[4-(2-methoxyethyl)piperazin-1-yl]pyrimidin-2-yl]-1,3-benzothiazol-2-yl]urea]",≤ 1 µg/mL,≤ 1 µg/mL
"CCNC(=O)Nc1nc2cc(-c3cnc(C(C)O)nc3)cc(-c3nccc(N4CCOCC4)n3)c2s1 (centres unmarked) [Compound 94, 1-ethyl-3-[5-[2-(1-hydroxyethyl)pyrimidin-5-yl]-7-(4-morpholinopyrimidin-2-yl)-1,3-benzothiazol-2-yl]urea]",≤ 1 µg/mL,≤ 1 µg/mL
"CCNC(=O)Nc1nc2cc(-c3cnc(C(C)(C)O)nc3)cc(-c3cc(CN4CCCC(F)(F)C4)ccn3)c2s1 [Compound 37, 1-[7-[4-[(3,3-difluoro-1-piperidyl)methyl]-2-pyridyl]-5-[2-(1-hydroxy-1-methyl-ethyl)pyrimidin-5-yl]-1,3-benzothiazol-2-yl]-3-ethyl-urea]",≤ 1 µg/mL,≤ 1 µg/mL
"CCNC(=O)Nc1nc2cc(-c3cnc(C(C)(C)O)nc3)cc(-c3cc(CN4CCN(C)CC4)ccn3)c2s1 [Compound 159, 1-ethyl-3-[5-[2-(1-hydroxy-1-methyl-ethyl)pyrimidin-5-yl]-7-[4-[(4-methylpiperazin-1-yl)methyl]-2-pyridyl]-1,3-benzothiazol-2-yl]urea]",2 µg/mL,≤ 1 µg/mL
"CCNC(=O)Nc1nc2cc(-c3cnc(C(C)(C)O)nc3)cc(-c3cc(C(C)N4CCOCC4)ccn3)c2s1 (centres unmarked) [Compound 33, 1-ethyl-3-[5-[2-(1-hydroxy-1-methyl-ethyl)pyrimidin-5-yl]-7-[4-(1-morpholinoethyl)-2-pyridyl]-1,3-benzothiazol-2-yl]urea]",≤ 1 µg/mL,≤ 1 µg/mL
"CCNC(=O)Nc1nc2cc(-n3cc(C(C)O)nn3)cc(-c3ccccn3)c2s1 (centres unmarked) [Compound 9, 1-ethyl-3-[5-[4-(1-hydroxyethyl)triazol-1-yl]-7-(2-pyridyl)-1,3-benzothiazol-2-yl]urea]",8 µg/mL,≤ 1 µg/mL
"CCNC(=O)Nc1nc2cc(-c3cnc(C(C)(C)O)nc3)cc(-c3cc(NC4CCC(C)(C(=O)O)CC4)ccn3)c2s1 (centres unmarked) [Compound 54, 4-[[2-[2-(ethylcarbamoylamino)-5-[2-(1-hydroxy-1-methyl-ethyl)pyrimidin-5-yl]-1,3-benzothiazol-7-yl]-4-pyridyl]amino]-1-methyl-cyclohexanecarboxylic acid]",≤ 1 µg/mL,≤ 1 µg/mL
"CCNC(=O)Nc1nc2cc(-c3cnc(C4(O)CCNCC4)nc3)cc(-c3ccccn3)c2s1 [Compound 174, 1-ethyl-3-[5-[2-(4-hydroxy-4-piperidyl)pyrimidin-5-yl]-7-(2-pyridyl)-1,3-benzothiazol-2-yl]urea]",8 µg/mL,2 µg/mL
"CCNC(=O)Nc1nc2cc(-c3cnc(C(C)(C)O)nc3)c(OCCN3CCOCC3)cc2s1 [Compound 199, 1-ethyl-3-[5-[2-(1-hydroxy-1-methyl-ethyl)pyrimidin-5-yl]-6-(2-morpholinoethoxy)-1,3-benzothiazol-2-yl]urea]",2 µg/mL,2 µg/mL
"CCNC(=O)Nc1nc2cc(-c3cnc(C(C)(C)O)nc3)cc(-c3cc(CN4CCC(C)(O)C4)ccn3)c2s1 (centres unmarked) [Compound 67, 1-ethyl-3-[5-[2-(1-hydroxy-1-methyl-ethyl)pyrimidin-5-yl]-7-[4-[(3-hydroxy-3-methyl-pyrrolidin-1-yl)methyl]-2-pyridyl]-1,3-benzothiazol-2-yl]urea]",≤ 1 µg/mL,≤ 1 µg/mL
"CCNC(=O)Nc1nc2cc(-c3cnc(C(C)(C)O)nc3)c(OCc3ccc(OC)c(OC)c3)cc2s1 [Compound 192, 1-[6-[(3,4-dimethoxyphenyl)methoxy]-5-[2-(1-hydroxy-1-methyl-ethyl)pyrimidin-5-yl]-1,3-benzothiazol-2-yl]-3-ethyl-urea]",≤ 1 µg/mL,≤ 1 µg/mL
"CCNC(=O)Nc1nc2cc(-c3cnc(C(C)(C)O)nc3)cc(-c3cc(CN4CC[C@@H](OC)C4)ccn3)c2s1 [Compound 42, 1-ethyl-3-[5-[2-(1-hydroxy-1-methyl-ethyl)pyrimidin-5-yl]-7-[4-[[(3R)-3-methoxypyrrolidin-1-yl]methyl]-2-pyridyl]-1,3-benzothiazol-2-yl]urea]",≤ 1 µg/mL,≤ 1 µg/mL
"CCNC(=O)Nc1nc2cc(-c3cnc(C(C)(C)O)nc3)c(OC)cc2s1 [Compound 176, 1-ethyl-3-[5-[2-(1-hydroxy-1-methyl-ethyl)pyrimidin-5-yl]-6-methoxy-1,3-benzothiazol-2-yl]urea]",≤ 1 µg/mL,≤ 1 µg/mL
"CCNC(=O)Nc1nc2cc(-c3cnc(C(C)O)nc3)cc(-c3nccc(N4CC(OC)C4)n3)c2s1 (centres unmarked) [Compound 93, 1-ethyl-3-[5-[2-(1-hydroxyethyl)pyrimidin-5-yl]-7-[4-(3-methoxyazetidin-1-yl)pyrimidin-2-yl]-1,3-benzothiazol-2-yl]urea]",≤ 1 µg/mL,≤ 1 µg/mL
"CCNC(=O)Nc1nc2cc(-c3cnc(C(C)(C)O)nc3)cc(-c3cc(N4CCC(C)(C(=O)O)CC4)ccn3)c2s1 [Compound 50, 1-[2-[2-(ethylcarbamoylamino)-5-[2-(1-hydroxy-1-methyl-ethyl)pyrimidin-5-yl]-1,3-benzothiazol-7-yl]-4-pyridyl]-4-methyl-piperidine-4-carboxylic acid]",≤ 1 µg/mL,≤ 1 µg/mL
"CCNC(=O)Nc1nc2cc(-c3cnc(C(C)O)nc3)cc(-c3cc(O)ccn3)c2s1 (centres unmarked) [Compound 90, 1-ethyl-3-[5-[2-(1-hydroxyethyl)pyrimidin-5-yl]-7-(4-hydroxy-2-pyridyl)-1,3-benzothiazol-2-yl]urea]",16 µg/mL,2 µg/mL
"CCNC(=O)Nc1nc2cc(-c3cnc(C(C)(C)O)nc3)cc(-c3nccc(N4CCC(C)(C(=O)O)CC4)n3)c2s1 [Compound 97, 1-[2-[2-(ethylcarbamoylamino)-5-[2-(1-hydroxy-1-methyl-ethyl)pyrimidin-5-yl]-1,3-benzothiazol-7-yl]pyrimidin-4-yl]-4-methyl-piperidine-4-carboxylic acid]",4 µg/mL,≤ 1 µg/mL
"CCNC(=O)Nc1nc2cc(-n3cnc(C(C)(C)O)c3)cc(-c3ccccn3)c2s1 [Compound 11, 1-ethyl-3-[5-[4-(1-hydroxy-1-methyl-ethyl)imidazol-1-yl]-7-(2-pyridyl)-1,3-benzothiazol-2-yl]urea]",4 µg/mL,≤ 1 µg/mL
"CCNC(=O)Nc1nc2cc(-c3cnc(C(C)(C)O)nc3)cc(-c3ccc(CN4CCOCC4)cn3)c2s1 [Compound 25, 1-ethyl-3-[5-[2-(1-hydroxy-1-methyl-ethyl)pyrimidin-5-yl]-7-[5-(morpholinomethyl)-2-pyridyl]-1,3-benzothiazol-2-yl]urea]",≤ 1 µg/mL,≤ 1 µg/mL
"CCNC(=O)Nc1nc2cc(-c3cnc(C4(O)CCN(C)CC4)nc3)cc(-c3ccccn3)c2s1 [Compound 128, 1-ethyl-3-[5-[2-(4-hydroxy-1-methyl-4-piperidyl)pyrimidin-5-yl]-7-(2-pyridyl)-1,3-benzothiazol-2-yl]urea]",≤ 1 µg/mL,≤ 1 µg/mL
"CCNC(=O)Nc1nc2cc(-c3cnc(C(C)O)nc3)c(OCC3CCCO3)cc2s1 (centres unmarked) [Compound 193, 1-ethyl-3-[5-[2-[1-hydroxyethyl]pyrimidin-5-yl]-6-(tetrahydrofuran-2-ylmethoxy)-1,3-benzothiazol-2-yl]urea]",≤ 1 µg/mL,2 µg/mL
